In PMC5562305, “Impact of novel palmitoylated prolactin-releasing peptide analogs on metabolic changes in mice with diet-induced obesity” (PLoS ONE, 2017):
Starred links: 1 amine or outer side, 2 acyl side, 3 side chain; linkers in the order of their positions; H or OH if unused. Residues, ends and D or L forms follow the SMILES beside them. Groups on a side chain read outwards from the residue. *: point of attachment. TTDA(Palmitoyl) = CCCCCCCCCCCCCCCC(=O)NCCCOCCOCCOCCCN*; Suc = O=C(CCC(=O)[*:2])[*:1]

Tested on: urinary metabolites
Assay: NMR-based metabolomics of urine of DIO mice
Format: in vivo, C57BL/6 mice
Set-up: key to DMA, Mean / DMG, Mean / MA, Mean / TMA, Mean / acetate, Mean / allantoin, Mean / carnitine, Mean / choline, Mean / cis-aconitate, Mean / creatine+creatinine, Mean / creatine, Mean / creatinine, Mean / ethanolamine, Mean / formate, Mean / galactose, Mean / glucose, Mean / glycine, Mean / lactate, Mean / succinate, Mean / vinylacetylglycine, Mean: TSA-normalized intensity of the metabolite's representative NMR signal
Protocol: Urine samples for NMR-based metabolomics were collected prior to the start of the interventions and at the end of the experiment. For overnight urine collection (from 5 pm to 8 am), the mice were housed in individual metabolic cages (Tecniplast, Buguggiate, Italy) without access to food. Samples were collected with the addition of NaN3 and stored at -80°C until NMR analysis.
The urine samples were thawed at room temperature and centrifuged at 13 684 x g for 5 min prior to the NMR experiments. A 200-μl aliquot of supernatant was diluted with 340 μl of H2O mixed with 60 μl of phosphate buffer (1.5 M KH2PO4 in D2O containing 2 mM NaN3 and 0.1% trimethylsilyl propionic acid (TSP), pH 7.4) and transferred to a 5-mm NMR tube. The NMR data were acquired with a 600 MHz Bruker Avance III spectrometer (Bruker BioSpin, Rheinstetten, Germany) equipped with a 5-mm TCI cryogenic probe head. All of the experiments were performed at 300 K. Automatic tuning, matching, shimming and adjusting of the 90° pulse length were performed for each sample.
As mouse urine naturally contains urinary proteins, the NMR spectra were acquired using a Carr-Purcell-Meiboom-Gill (CPMG) pulse sequence with water presaturation (Bruker pulse sequence cpmgpr1d) to eliminate the strong protein background. […] For better metabolite identification, a short J-resolved experiment with presaturation (NS = 2, SW = 16 ppm, TD = 8k, number of increments = 40, SW = 78.125 Hz in the indirect dimension, and relaxation delay = 2 s) was executed for all samples. Additional two-dimensional ^1H-^1H correlation spectroscopy (COSY) and ^1H-^13C heteronuclear multiple-quantum correlation (HMQC) experiments (Bruker pulse sequences cosygpprqf and hmqcphpr) were performed for selected samples.
The acquired data were processed using Topspin 3.2 software (Bruker BioSpin, Rheinstetten, Germany). Line broadening of 0.3 Hz was applied on free induction decays (FIDs) prior to Fourier transformation. The spectra were automatically phased, baseline corrected and referenced to the signal of TSP (0.00 ppm).
The assignment of individual metabolites was achieved by comparing the proton spectra with the spectra of pure metabolites using Chenomx NMR Suite 7.6 (Chenomx Inc., Edmonton, AB, Canada), the HMDB database and previously published metabolomic data. The identification of metabolites was supported through J-resolved and COSY experiments and, if possible, confirmed using carbon chemical shifts extracted from the HMQC spectra.
For quantitation of individual metabolites, the CPMG spectra were uniformly binned in the range of 0.10–10.00 ppm to 0.01-ppm intervals using AMIX software (Bruker BioSpin, Rheinstetten, Germany). This procedure reduced the dimensionality of the data, eliminated chemical shift variations and thus simplified the reproducible automatic quantification. Regions corresponding to water (4.60–4.90 ppm) and urea (5.60–6.00 ppm) were removed prior to analysis. As the dilutions of the original urine samples differed (due to the differences in water intake during urine collection), all of the spectra were normalized to the total spectral area (TSA). For each identified metabolite, one representative signal was chosen and then quantified as the sum of appropriate adjacent 0.01-ppm bins to cover the whole signal width. The metabolite concentration was expressed as the TSA-normalized intensity of the respective signal. For selection of an appropriate statistical method (parametric or non-parametric) the Lilliefors test of normality was performed. […] Metabolite alterations with a P < 0.05 were considered statistically significant. Statistical analysis was performed using Matlab software (“MATLAB version 8.6 (R2015b). Natick, Massachusetts: The MathWorks Inc., 2015.,” n.d.). […]

[1] = urine NMR signal, DIO mice, group mean
[2] = urine of DIO mice, NMR metabolomics, difference of analog mean vs saline mean

For `CCCCCCCCCCCCCCCC(=O)NCCCOCCOCCOCCCNC(=O)CCC(=O)NCCCC[C@H](NC(=O)[C@@H](NC(=O)[C@H](CCC(=O)O)NC(=O)[C@H](CCSC)NC(=O)[C@H](CO)NC(=O)[C@H](Cc1c[nH]cn1)NC(=O)[C@H](CCCNC(=N)N)NC(=O)[C@H](Cc1c[nH]cn1)NC(=O)[C@@H](NC(=O)[C@H](CCCNC(=N)N)NC(=O)[C@@H](N)CO)[C@@H](C)O)[C@@H](C)CC)C(=O)N[C@H](C(=O)N1CCC[C@H]1C(=O)N[C@@H](CC(=O)O)C(=O)N[C@H](C(=O)N[C@@H](CC(N)=O)C(=O)N1CCC[C@H]1C(=O)N[C@@H](C)C(=O)N[C@@H](Cc1c[nH]c2ccccc12)C(=O)N[C@@H](Cc1ccc(O)cc1)C(=O)N[C@@H](C)C(=O)N[C@@H](CO)C(=O)N[C@@H](CCCNC(=N)N)C(=O)NCC(=O)N[C@H](C(=O)N[C@@H](CCCNC(=N)N)C(=O)N1CCC[C@H]1C(=O)N[C@H](C(=O)NCC(=O)N[C@@H](CCCNC(=N)N)C(=O)N[C@@H](Cc1ccccc1)C(N)=O)C(C)C)[C@@H](C)CC)[C@@H](C)CC)[C@@H](C)O` [analog 2] (H-SRTHRHSMEIK([Suc-TTDA(Palmitoyl)])TPDINPAWYASRGIRPVGRF-NH2; N-terminus assumed), the “2-OG (2.45 ppm), Mean” value [1] was 11.956, the “2-OG (3.01 ppm), Mean” value [1] was 10.103 and the “2-PY (8.33 ppm), Mean” value [1] was 0.992. The “3-indoxylsulfate (7.51 ppm), Mean” value [1] was 1.459, the “3-indoxylsulfate (7.71 ppm), Mean” value [1] was 0.842 and the “4-PY (7.97 ppm), Mean” value [1] was 1.710. For the same molecule, the “4-PY (8.55 ppm), Mean” value [1] was 0.484, the “DMA, Mean” value [1] was 5.145 and the “DMG, Mean” value [1] was 1.928. The “MA, Mean” value [1] was 2.920, the “MNA (8.90 ppm), Mean” value [1] was 0.407 and the “MNA (8.97 ppm), Mean” value [1] was 0.391. For the same molecule, the “MNA (9.265 ppm), Mean” value [1] was 0.413, the “MNA-Nox (7.75 ppm), Mean” value [1] was 0.969 and the “MNA-Nox (8.13 ppm), Mean” value [1] was 0.725. For the same molecule, the “MNA-Nox (8.49 ppm), Mean” value [1] was 0.458, the “MNA-Nox (8.75 ppm), Mean” value [1] was 0.434 and the “N-carbamoylalanine (2.38 ppm), Mean” value [1] was 10.919. The “N-carbamoylalanine (3.31 ppm), Mean” value [1] was 9.060, the “N-isovalerylglycine + oxovalerate (0.92 ppm), Mean” value [1] was 15.384 and the “TMA, Mean” value [1] was 10.220. For the same molecule, the “acetate, Mean” value [1] was 4.384, the “allantoin, Mean” value [1] was 21.272 and the “carnitine, Mean” value [1] was 6.113. The “choline, Mean” value [1] was 2.053, the “cis-aconitate, Mean” value [1] was 9.014 and the “citrate (2.55 ppm), Mean” value [1] was 31.737. For the same molecule, the “citrate (2.69 ppm), Mean” value [1] was 28.801, the “creatine+creatinine, Mean” value [1] was 23.782 and the “creatine, Mean” value [1] was 6.742. The “creatinine, Mean” value [1] was 11.494, the “ethanolamine, Mean” value [1] was 7.749 and the “formate, Mean” value [1] was 0.205. The “fumarate, Mean” value [1] was 0.167, the “galactose, Mean” value [1] was 0.806 and the “glucose, Mean” value [1] was 3.486. The “glycine, Mean” value [1] was 6.185, the “hexanoylglycine + acids (0.88 ppm), Mean” value [1] was 15.251 and the “hippurate (7.55 ppm), Mean” value [1] was 4.857. The “hippurate (7.64 ppm), Mean” value [1] was 2.465, the “hippurate (7.84 ppm), Mean” value [1] was 5.092 and the “lactate, Mean” value [1] was 7.122. The “multiplet acids (1.6 ppm), Mean” value [1] was 12.357, the “putrescin, Mean” value [1] was 8.544 and the “succinate, Mean” value [1] was 12.532. For the same molecule, the “taurine (3.27 ppm), Mean” value [1] was 20.714, the “taurine (3.43 ppm), Mean” value [1] was 17.197 and the “trigonelline (8.84 ppm), Mean” value [1] was 0.310. The “trigonelline (9.13 ppm), Mean” value [1] was 0.125, the “vinylacetylglycine, Mean” value [1] was 3.494 and the “2-OG (2.45 ppm), Saline/analog %” value [2] was 0.017%. For the same molecule, the “2-OG (3.01 ppm), Saline/analog %” value [2] was -0.013%, the “2-PY (8.33 ppm), Saline/analog %” value [2] was -0.147% and the “3-indoxylsulfate (7.51 ppm), Saline/analog %” value [2] was 0.120%. The “3-indoxylsulfate (7.71 ppm), Saline/analog %” value [2] was 0.094%, the “4-PY (7.97 ppm), Saline/analog %” value [2] was -0.055% and the “4-PY (8.55 ppm), Saline/analog %” value [2] was -0.165%. The “DMA, Saline/analog %” value [2] was 0.025%, the “N-carbamoylalanine (2.38 ppm), Saline/analog %” value [2] was 0.014% and the “N-carbamoylalanine (3.31 ppm), Saline/analog %” value [2] was -0.045%. The “N-isovalerylglycine + oxovalerate (0.92 ppm), Saline/analog %” value [2] was 0.062%, the “TMA, Saline/analog %” value [2] was -0.159% and the “acetate, Saline/analog %” value [2] was 0.167%. The “allantoin, Saline/analog %” value [2] was 0.054%, the “carnitine, Saline/analog %” value [2] was 0.027% and the “choline, Saline/analog %” value [2] was 0.042%. For the same molecule, the “cis-aconitate, Saline/analog %” value [2] was 0.015%, the “citrate (2.55 ppm), Saline/analog %” value [2] was -0.026% and the “citrate (2.69 ppm), Saline/analog %” value [2] was -0.034%. For the same molecule, the “creatine+creatinine, Saline/analog %” value [2] was 0.043%.
